Laboratory results taken from patent US20030040541A1, “Use of bismuth subgallate in inhibition of production of nitric oxide synthase” (Hedonist Biochemical Technologies Co., Ltd., priority 2001, published 2003).

Tested on: RAW 264.7 cells
Assay: NO production (nitrite, Griess reaction) by LPS/IFN-γ activated RAW 264.7 cells
Assay type: cell-based, mice
Conditions: 24 hours
Description: The cells of the mice macrophage cell line RAW 264.7 (under accession number CCRC 60001), which was obtained from Cell Culture Research Center, Food Industry Research and Development Institute, Hsinchu, Taiwan, R.O.C., were used for the test.
The RAW 264.7 cells were incubated in a 96 well tissue culture plate (Falcon). After 24 hours, the cells were activated with Dulbecco's Modified Eagle Medium (DMEM, 2014, GibcoBRL) in the presence and absence of 100 ng/ml LPS, 100 U/ml IFN-γ and various concentrations (10 μM, 20 μM, 50 μM, 100 μM and 200 μM) of bismuth subgallate (Hwang et al., 1994, J. Biol. Chem. 269, p. 711-715). After 24 hours, 50 μl of the supernatant from each well was assayed for the presence of nitrite through the Saville modification of the Griess reaction (Green et al., Analytical Biochem, 1982, 126:131-138). The results were represented by the means plus standard errors values (Mean±SE) of three repetitions.
The effect of borneol on the inhibition of NO synthase was tested through the same experimental procedures as described in Example 1. Various concentrations of borneol (0 μM, 40 μM, 80 μM, 160 μM, 320 μM and 640 μM) were used to replace bismuth subgallate of Example 1. The results were represented by the mean values of three repetitions with standard errors (Mean±SE).
The effect of bismuth subgallate in combination with borneol on the inhibition of NO synthase was tested through the similar experimental procedures as described in Example 1. The following concentrations of Bismuth subgallate: 0 μM, 12.5 μM, 25 μM, 50 μM and 100 μM, were combined with the following concentrations of borneol: 0 μM, 10 μM, 20 μM and 40 μM, respectively, to obtain the combinations for the replacement of bismuth subgallate used in Example 1. The results were represented by the mean values of three repetitions with standard errors (Mean±SE).

Molecule	NO production (nitrite concentration in supernatant) (borneol 0, 40, 80, 160, 320, 640 μM, LPS + IFN-γ activated cells, FIG. 2)	NO production (nitrite concentration in supernatant) (bismuth subgallate 10, 20, 50, 100, 200 μM, 100 ng/ml LPS + 100 U/ml IFN-γ, FIG. 1)	concentration dependence of NO production (bismuth subgallate 10-200 μM, LPS + IFN-γ activated cells, FIG. 1)
CC1(C)C2CCC1(C)C(O)C2 (stereo not drawn) [borneol]	not significantly inhibited	–	–
bismuth subgallate	–	showed a reduction in nitrite concentration	inversely proportional to the increase in the concentration of bismuth subgallate
